Assay results taken from patent US10590413B2, “Chiral control” (WAVE LIFE SCIENCES LTD., priority 2012, dated 2020).
Where two headings read alike, the source gives them in different places. Strand notation (5' to 3'): a small letter for the sugar, then the base; units joined by * are phosphorothioate-linked, units joined directly phosphodiester-linked; [ ] holds rarer units or linkages, { } end groups; capitals alone tell only the bases. [Rp] = phosphorothioate linkage, Rp; [Sp] = phosphorothioate linkage, Sp; d = 2'-deoxy (DNA)

Legend:
NK activity = details: cited from earlier work; for % 2C11 Specific Lysis, Effector:Target 50:1 / % 2C11 Specific Lysis, Effector:Target 100:1: 2C11 targets; for % YAC-1 Specific Lysis, Effector:Target 50:1 / % YAC-1 Specific Lysis, Effector:Target 100:1: YAC-1 targets
Mouse B Cells = details: mean and std. dev. of at least 3 experiments, compared to wells with no added ODN, cited from earlier work
[1] = test system: Apolipoprotein B (Apo B) (NM_000384); test: Apo B gene expression in Hep3B cells after Lipofectamine 2000 transfection, real-time PCR SYBR green (Example 50); assay type: cell-based, Homo Sapiens; details: for activity compared to Mipomersen (120) / potency compared to the corresponding stereorandom oligonucleotide mixture (Oligonucleotide 118): from Table E-19 IC50, Hep3B
Procedure: After checking OD all oligonucleotide candidate molecules were diluted to a starting concentration of 20 μM. Multidose forward transfection experiment was setup in 96-well plates using Hep3B cells (ATCC®, Cat. HB-8064™) using Lipofectamine 2000 (Life Technologies, Cat. 11668-019) transfection reagent.
2×10^4 Hep3B cells per well were seeded and incubated for 24 hours at 37° C. in a CO2 incubator in 100 μl of antibiotic free MEM medium (Life Technologies, Cat. 11095098) containing 10% FBS and 1% Glutamax I (Life Technologies, Cat. 35050061). Twelve dilutions were setup in nuclease free water (Table E-16).
For each well, 0.5 μL of Lipofectamine 2000 were mixed with 9.5 μL of Opti MEM I reduced serum medium (Life Technologies, Cat. 31985062) and incubated for 5 minutes. Following incubation, 10 μL of each of the candidates at the reported concentrations was mixed with the diluted Lipofectamine 2000 by gentle pipetting. The mixture was then incubated for 20 minutes at room temperature to allow for complex formation. During this time the cell growth medium was replaced with 80 μL of fresh antibiotic free MEM as previously described. 20 μL of lipid-oligo complex was gently mixed into each well bringing the total volume to 100 μL. The cells were then incubated for 24 hours at 37° C. in a CO2 incubator.
After 24 hour incubation the cell growth medium was removed and RNA was extracted using a Dynabeads mRNA Direct kit (Life Technologies, Cat. 61012) per the instructions provided in the kit manual without modifications. This magnetic Oligo (dT)^25 bead system allows for cost-effective and robust high-throughput poly (A) RNA extraction circumventing DNAse treatment. RNA was eluted in nuclease-free water and stored at −80° C.
10 μL of RNA was used in a 20 μL cDNA synthesis reaction using a High Capacity cDNA Reverse Transcription Kit (Life Technologies, Cat. 4374967) using the kit protocol with RNAse Inhibitor. The reverse transcription was performed in a 96-well format on a C1000 Touch thermal cycler (Biorad, Cat. 185-1196EDU).
Gene expression was measured by quantitative PCR using a LightCycler® 480 SYBR Green I Master (Roche, Cat. 04707516001) on LightCycler 480 Real-Time PCR instrument. Primers for the Homo Sapiens sequences of the target Apolipoprotein B (Apo B) (NM_000384) and endogenous control Glyceralydhyde-3-phosphate dehydrogenase (GAPDH) (NM_002046) were designed and ordered from IDT (Table E-17).
Measurement of the target and endogenous control was performed in separate wells using material from the same cDNA template. SYBR green assay PCR conditions were setup as described in the SYBR Green I Master protocol (Table E-18).
The data is a result of 3 biological replicates. All samples were compared to Naïve untransfected control. The following results were observed when evaluating gene expression by real-time PCR using SYBR green (Table E-19, FIG. 5).

complementary RNA = test: Thermal denaturation experiment (Tm) of DNA strand with complementary RNA (Example 49); assay type: binding; details: duplex with complementary RNA, equimolar 0.5 μM in 1×PBS; first derivative of 254 nm absorbance curve
Procedure: Each DNA strand was mixed with complementary RNA in equimolar concentration of 0.5 μM in 1×PBS. Total 2.5 mL solution was prepared for each duplex and the mixture was heated at 90° C. for 2 min and was allowed to cool down over the course of several hours. The mixtures were then stored at 4° C. for 2 hrs. Absorbance at 254 nm was recorded at an interval of 0.5 min starting the temperature gradient from 15° C. to 90° C. with rise of 0.5° C./minute, using a Perkin Elmer UV-spectrophotometer equipped with a Peltier unit. The 254 nm absorbance was plotted against the temperature and the Tm values were calculated from the respective first derivative of each curve.

NK Lytic Activity = details: cited from earlier work; for NK Lytic Activity (LU): human PBMC cultured with ODN 6 μg/ml for 24 hr, lysis of 51Cr-labeled K562 cells; for LU (NK lytic activity): human PBMC, ODN 6 μg/ml for 24 hr, lysis of Cr-labeled K562 cells, cells alone 0.01
[2] = Apo B mRNA, Hep3B cells, 24 hours after transfection, read-out: IC50 (nM) (rounded up to single digit)
[3] = Complete IC50 data evaluated by SYBR green, Apo B mRNA, Hep3B cells, 24 hours, 3 biological replicates, read-out: IC50

Substance | Tm (° C.) ± 0.5 (complementary RNA) | NK Lytic Activity (LU) (NK Lytic Activity) | LU (NK lytic activity) (NK Lytic Activity) | IC50 [1, 2] | IC50 [1, 3] | other results
1 (DNA GCTAGACGTTAGCGT; chemistry not given here) [Oligonucleotide 1] | – | – | – | – | – | % 2C11 Specific Lysis, Effector:Target 50:1 (NK activity; Effector:Target 50:1): 38.7%; % 2C11 Specific Lysis, Effector:Target 100:1 (NK activity; Effector:Target 100:1): 47.2%; % 2C11 Specific Lysis (NK activity; Effector:Target 50:1): 38.7%; % YAC-1 Specific Lysis (NK activity; Effector:Target 50:1): 16.1%; % 2C11 Specific Lysis (NK activity; Effector:Target 100:1): 47.2%; % YAC-1 Specific Lysis (NK activity; Effector:Target 100:1): 24.5%; % YAC-1 Specific Lysis, Effector:Target 50:1 (NK activity; Effector:Target 50:1): 16.1%; % YAC-1 Specific Lysis, Effector:Target 100:1 (NK activity; Effector:Target 100:1): 24.5%; Stimulation Index, 3H Uridine (Mouse B Cells; US 6,239,116 Table 1): 6.1 ± 0.8; Stimulation Index, IgM Production (Mouse B Cells; US 6,239,116 Table 1): 17.9 ± 3.6; Stimulation Index, 3H Uridine (Mouse B Cells): 6.1 ± 0.8
3Dd (DNA GAGAACGCTGGACCTTCCAT; Z modified cytosine, further chemistry not given here) [Oligonucleotide 3Dd] | – | – | – | – | – | % 2C11 Specific Lysis, Effector:Target 50:1 (NK activity; Effector:Target 50:1): 37.0%; % 2C11 Specific Lysis, Effector:Target 100:1 (NK activity; Effector:Target 100:1): 40.0%; % 2C11 Specific Lysis (NK activity; Effector:Target 50:1): 37.0%; % YAC-1 Specific Lysis (NK activity; Effector:Target 50:1): 17.1%; % 2C11 Specific Lysis (NK activity; Effector:Target 100:1): 40.0%; % YAC-1 Specific Lysis (NK activity; Effector:Target 100:1): 27.0%; % YAC-1 Specific Lysis, Effector:Target 50:1 (NK activity; Effector:Target 50:1): 17.1%; % YAC-1 Specific Lysis, Effector:Target 100:1 (NK activity; Effector:Target 100:1): 27.0%; Stimulation Index, 3H Uridine (Mouse B Cells; US 6,239,116 Table 1): 1.2 ± 0.2; Stimulation Index, IgM Production (Mouse B Cells; US 6,239,116 Table 1): 1.0 ± 0.4; Stimulation Index, 3H Uridine (Mouse B Cells): 1.2 ± 0.2
119 (DNA GCCTCAGTCTGCTTCGCACC; unmodified DNA) [Oligonucleotide 119] | 73.4 °C | – | – | – | – | IC50 (nM) (rounded up to single digit) ([1]; Apo B mRNA, Hep3B cells, 24 hours after transfection): Not detected
1781 (DNA ACCATGGACGTTCTGTTTCCCCTC; chemistry not given here) [Oligonucleotide 1781] | – | 0.38 LU | 0.38 LU | – | – | –
1823 (DNA GCATGACGTTGAGCT; chemistry not given here) [Oligonucleotide 1823] | – | 0.08 LU | 0.08 LU | – | – | –
1824 (DNA CACGTTGAGGGGCAT; chemistry not given here) [Oligonucleotide 1824] | – | 0.01 LU | 0.01 LU | – | – | –
1825 (DNA CTGCTGAGACTGGAG; chemistry not given here) [Oligonucleotide 1825] | – | 0.01 LU | 0.01 LU | – | – | –
1828 (DNA TCAGCGTGCGCC; chemistry not given here) [Oligonucleotide 1828] | – | 0.01 LU | 0.01 LU | – | – | –
1829 (DNA ATGACGTTCCTGACGTT; chemistry not given here) [Oligonucleotide 1829] | – | 0.42 LU | 0.42 LU | – | – | –
1834 (DNA TCTCCCAGCGGGCGCAT; chemistry not given here) [Oligonucleotide 1834] | – | 0.00 LU | 0.00 LU | – | – | –
1836 (DNA TCTCCCAGCGCGCGCCAT; chemistry not given here) [Oligonucleotide 1836] | – | 0.46 LU | 0.46 LU | – | – | –
1842 (DNA TCGTCGCTGTCTCCGCTTCTT; chemistry not given here) [Oligonucleotide 1842] | – | 0.06 LU | 0.06 LU | – | – | –
1851 (DNA TCCTGACGTTCCTGACGTT; chemistry not given here) [Oligonucleotide 1851] | – | 2.32 LU | 2.32 LU | – | – | –
(Rp, Rp, Rp, Sp, Sp, Sp, Sp, Sp, Sp, Sp, Sp, Sp, Sp, Sp, Sp, Sp, Rp, Rp, Rp)-d[GsCsCsTsCsAsGsTsCsTsGsCsTsTsCsGsCsAsCsC] (DNA GCCTCAGTCTGCTTCGCACC; DNA, linkages [Rp]3 [Sp]13 [Rp]3 (s phosphorothioate, o phosphodiester), methylation of C not given here) [Oligonucleotide 110] | 62.9 °C | – | – | 7 nM | 7.44 nM | –
(Rp, Rp, Sp, Rp, Rp, Sp, Rp, Rp, Sp, Rp, Rp, Sp, Rp, Rp, Sp, Rp, Rp, Sp, Rp)-d[GsCsCsTsCsAsGsTsCsTsGsCsTsTsCsGsCsAsCsC] (DNA GCCTCAGTCTGCTTCGCACC; DNA, linkages [Rp][Rp][Sp][Rp][Rp][Sp][Rp][Rp][Sp][Rp][Rp][Sp][Rp][Rp][Sp][Rp][Rp][Sp][Rp] (s phosphorothioate, o phosphodiester), methylation of C not given here) [Oligonucleotide 114] | 65.2 °C | – | – | 5 nM | 5.23 nM | –
(Rp, Sp, Rp, Rp, Sp, Rp, Rp, Sp, Rp, Rp, Sp, Rp, Rp, Sp, Rp, Rp, Sp, Rp, Rp)d[GsCsCsTsCsAsGsTsCsTsGsCsTsTsCsGsCsAsCsC] (DNA dG[Rp]dC[Sp]dC[Rp]dT[Rp]dC[Sp]dA[Rp]dG[Rp]dT[Sp]dC[Rp]dT[Rp]dG[Sp]dC[Rp]dT[Rp]dT[Sp]dC[Rp]dG[Rp]dC[Sp]dA[Rp]dC[Rp]dC) [Oligonucleotide 116] | 64.8 °C | – | – | 2 nM | 1.92 nM | activity compared to Mipomersen (120) [1]: more active; potency compared to the corresponding stereorandom oligonucleotide mixture (Oligonucleotide 118) [1]: more potent
(Rp, Sp, Rp, Sp, Rp, Sp, Rp, Sp, Rp, Sp, Rp, Sp, Rp, Sp, Rp, Sp, Rp, Sp, Rp)-d[GsCsCsTsCsAsGsTsCsTsGsCsTsTsCsGsCsAsCsC] (DNA GCCTCAGTCTGCTTCGCACC; DNA, linkages [Rp][Sp][Rp][Sp][Rp][Sp][Rp][Sp][Rp][Sp][Rp][Sp][Rp][Sp][Rp][Sp][Rp][Sp][Rp] (s phosphorothioate, o phosphodiester), methylation of C not given here) [Oligonucleotide 107] | 64.5 °C | – | – | 4 nM | ~4.18 nM | activity compared to Mipomersen (120) [1]: more active
(Rp, Sp, Sp, Sp, Sp, Sp, Sp, Sp, Sp, Sp, Sp, Sp, Sp, Sp, Sp, Sp, Sp, Sp, Rp)-d[GsCsCsTsCsAsGsTsCsTsGsCsTsTsCsGsCsAsCsC] (DNA GCCTCAGTCTGCTTCGCACC; DNA, linkages [Rp]1 [Sp]17 [Rp]1 (s phosphorothioate, o phosphodiester), methylation of C not given here) [Oligonucleotide 106] | 61.8 °C | – | – | 4 nM | ~3.85 nM | activity compared to Mipomersen (120) [1]: more active
(Sp, Rp, Rp, Rp, Rp, Rp, Rp, Rp, Rp, Rp, Rp, Rp, Rp, Rp, Rp, Rp, Rp, Rp, Sp)-d[GsCsCsTsCsAsGsTsCsTsGsCsTsTsCsGsCsAsCsC] (DNA GCCTCAGTCTGCTTCGCACC; DNA, linkages [Sp]1 [Rp]17 [Sp]1 (s phosphorothioate, o phosphodiester), methylation of C not given here) [Oligonucleotide 105] | 66.5 °C | – | – | 3 nM | 2.88 nM | activity compared to Mipomersen (120) [1]: more active; potency compared to the corresponding stereorandom oligonucleotide mixture (Oligonucleotide 118) [1]: more potent
